Data published in patent publication US7964560B2, “Hepatitis C virus inhibitors” (Bristol-Myers Squibb Company, priority 2008, dated 2011).
pEC50, pIC50: −log10 of the molar value. Like-named read-outs stand apart in the source and are kept apart here.

Tests used:
[1] = tested on: HCV replicon in HUH-7 cells; assay: HCV replicon FRET assay; assay type: cell-based, Hepatitis C virus (strain 1b); settings: Hepatitis C virus, Huh-7, Table 2, HCV replicon, replicon assay format not stated, read-out: EC50
From the text: An HCV replicon whole cell system was established as described by Lohmann, V. et al., Science, 285(5424):110-113 (1999). This system enabled us to evaluate the effects of our HCV Protease compounds on HCV RNA replication. Briefly, using the HCV strain 1b sequence described in the Lohmann paper (Accession number: AJ238799), an HCV cDNA was synthesized by Operon Technologies, Inc. (Alameda, Calif.), and the full-length replicon was then assembled in plasmid pGem9zf(+) (Promega, Madison, Wis.) using standard molecular biology techniques. The replicon consists of (i) the HCV 5′ UTR fused to the first 12 amino acids of the capsid protein, (ii) the neomycin phosphotransferase gene (neo), (iii) the IRES from encephalomyocarditis virus (EMCV), and (iv) HCV NS3 to NS5B genes and the HCV 3′ UTR. Plasmid DNAs were linearized with ScaI and RNA transcripts were synthesized in vitro using the T7 MegaScript transcription kit (Ambion, Austin, Tex.) according to manufacturer's directions. In vitro transcripts of the cDNA were transfected into the human hepatoma cell line, HUH-7. […] Resulting cell lines were characterized for positive and negative strand RNA production and protein production over time.
The HCV replicon FRET assay was developed to monitor the inhibitory effects of compounds described in the disclosure on HCV viral replication. HUH-7 cells, constitutively expressing the HCV replicon, were grown in Dulbecco's Modified Eagle Media (DMEM) (Gibco-BRL) containing 10% Fetal calf serum (FCS) (Sigma) and 1 mg/ml G418 (Gibco-BRL). Cells were seeded the night before (1.5×10^4 cells/well) in 96-well tissue-culture sterile plates. Compound and no compound controls were prepared in DMEM containing 4% FCS, 1:100 Penicillin/Streptomysin (Gibco-BRL), 1:100 L-glutamine and 5% DMSO in the dilution plate (0.5% DMSO final concentration in the assay). Compound/DMSO mixes were added to the cells and incubated for 4 days at 37° C. After 4 days, cells were first assessed for cytotoxicity using alamar Blue (Trek Diagnostic Systems) for a CC50 reading. The toxicity of compound (CC50) was determined by adding 1/10th volume of alamar Blue to the media incubating the cells. After 4 h, the fluorescence signal from each well was read, with an excitation wavelength at 530 nm and an emission wavelength of 580 nm, using the CYTOFLUOR® Series 4000 (Perspective Biosystems). Plates were then rinsed thoroughly with Phosphate-Buffered Saline (PBS) (3 times 150 μl). The cells were lysed with 25 μl of a lysis assay reagent containing an HCV protease substrate (5× cell Luciferase cell culture lysis reagent (PROMEGA® #E153A) diluted to 1× with distilled water, NaCl added to 150 mM final, the FRET peptide substrate (as described for the enzyme assay above) diluted to 10 μM final from a 2 mM stock in 100% DMSO. The plate was then placed into the CYTOFLUOR® 4000 instrument which had been set to 340 nm excitation/490 nm emission, automatic mode for 21 cycles and the plate read in a kinetic mode. EC50 determinations were carried out as described for the IC50 determinations.

[2] = biological target: T1, HCV NS3/4A protease complex, BMS strain (UniProt P27958, species not given/STRAIN_BMS); assay: FRET peptide assay to monitor HCV NS3/4A proteolytic activity (BMS strain); assay type: biochemical, Hepatitis C virus (genotype 1a); settings: Table 2, NS3/4A BMS strain
T1 construct: said of H77 and J4L6S; fused on or other part: three-lysine solubilising tail at the end of NS4A (printed for the H77 and J4L6S constructs; probably the same for BMS)
T1 sequence (P27958 1027-1657, change not shown, one chain of several): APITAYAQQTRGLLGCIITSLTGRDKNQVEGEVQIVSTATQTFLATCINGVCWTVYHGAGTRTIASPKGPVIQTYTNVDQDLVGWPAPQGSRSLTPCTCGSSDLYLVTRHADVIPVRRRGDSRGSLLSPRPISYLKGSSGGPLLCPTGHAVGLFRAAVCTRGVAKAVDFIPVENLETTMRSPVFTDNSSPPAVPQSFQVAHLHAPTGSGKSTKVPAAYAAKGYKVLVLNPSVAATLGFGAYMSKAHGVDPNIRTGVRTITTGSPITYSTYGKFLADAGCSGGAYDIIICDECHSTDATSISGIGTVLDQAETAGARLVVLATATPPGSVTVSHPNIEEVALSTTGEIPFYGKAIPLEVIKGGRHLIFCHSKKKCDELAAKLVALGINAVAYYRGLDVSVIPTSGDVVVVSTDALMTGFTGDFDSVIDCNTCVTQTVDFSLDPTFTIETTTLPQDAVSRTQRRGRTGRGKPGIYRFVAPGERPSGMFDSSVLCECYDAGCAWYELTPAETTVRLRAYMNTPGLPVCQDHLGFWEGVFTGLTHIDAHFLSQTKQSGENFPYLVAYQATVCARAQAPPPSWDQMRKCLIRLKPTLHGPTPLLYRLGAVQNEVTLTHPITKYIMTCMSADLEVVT
From the text: HCV […] protease complexes, derived from the BMS strain, H77 strain or J4L6S strain, were generated, as described below. These purified recombinant proteins were generated for use in a homogeneous assay (see below) to provide an indication of how effective compounds of the present disclosure would be in inhibiting HCV NS3 proteolytic activity.
Serum from an HCV-infected patient was obtained from Dr. T. Wright, San Francisco Hospital. An engineered full-length cDNA (compliment deoxyribonucleic acid) template of the HCV genome (BMS strain) was constructed from DNA fragments obtained by reverse transcription-PCR (RT-PCR) of serum RNA (ribonucleic acid) and using primers selected on the basis of homology between other genotype 1a strains. From the determination of the entire genome sequence, a genotype 1a was assigned to the HCV isolate according to the classification of Simmonds et al. (See Simmonds, P. et al., J. Clin. Microbiol., 31(6), 1493-1503 (1993)). […] The infectious clones, H77 (1a genotype) and J4L6S (1b genotype) were obtained from R. Purcell (NIH) and the sequences are published in GENBANK® (AAB67036, see Yanagi, M. et al., Proc. Natl. Acad. Sci. U.S.A., 94(16):8738-8743 (1997); AF054247, see Yanagi, M. et al., Virology, 244(1):161-172 (1998)).
The H77 and J4L6S strains were used for production of recombinant NS3/4A protease complexes. DNA encoding the recombinant HCV NS3/4A protease complex (amino acids 1027 to 1711) for these strains were manipulated as described by P. Gallinari et al. (see Gallinari, P. et al, Biochemistry, 38(17):5620-5632 (1999)). Briefly, a three-lysine solubilizing tail was added at the 3′-end of the NS4A coding region. The cysteine in the P1 position of the NS4A-NS4B cleavage site (amino acid 1711) was changed to a glycine to avoid the proteolytic cleavage of the lysine tag. Furthermore, a cysteine to serine mutation was introduced by PCR at amino acid position 1454 to prevent the autolytic cleavage in the NS3 helicase domain. The variant DNA fragment was cloned in the pET21b bacterial expression vector (Novagen) and the NS3/4A complex was expressed in Escherichia. coli strain BL21 (DE3) (Invitrogen) following the protocol described by P. Gallinari et al. (see Gallinari, P. et al., J. Virol., 72(8):6758-6769 (1998)) with modifications. Briefly, the NS3/4A protease complex expression was induced with 0.5 millimolar (mM) Isopropyl β-D-1-thiogalactopyranoside (IPTG) for 22 hours (h) at 20° C. A typical fermentation (1 Liter (L)) yielded approximately 10 grams (g) of wet cell paste. The cells were resuspended in lysis buffer (10 mL/g) consisting of 25 mM N-(2-hydroxyethyl)piperazine-N′-(2-ethane sulfonic acid) (HEPES), pH 7.5, 20% glycerol, 500 mM sodium chloride (NaCl), 0.5% Triton X-100, 1 microgram/milliliter (“μg/mL”) lysozyme, 5 mM magnesium chloride (MgCl2), 1 μg/ml DnaseI, 5 mM β-mercaptoethanol (βME), protease inhibitor-ethylenediamine tetraacetic acid (EDTA) free (Roche), homogenized and incubated for 20 minutes (min) at 4° C. The homogenate was sonicated and clarified by ultra-centrifugation at 235000 g for 1 hour (h) at 4° C. Imidazole was added to the supernatant to a final concentration of 15 mM and the pH adjusted to 8.0. The crude protein extract was loaded on a Nickel-Nitrilotriacetic acid (Ni-NTA) column pre-equilibrated with buffer B (25 mM HEPES, pH 8.0, 20% glycerol, 500 mM NaCl, 0.5% Triton X-100, 15 mM imidazole, 5 mM βME). The sample was loaded at a flow rate of 1 mL/min. The column was washed with 15 column volumes of buffer C (same as buffer B except with 0.2% Triton X-100). The protein was eluted with 5 column volumes of buffer D (same as buffer C except with 200 mM Imidazole).
NS3/4A protease complex-containing fractions were pooled and loaded on a desalting column Superdex-S200 pre-equilibrated with buffer D (25 mM HEPES, pH 7.5, 20% glycerol, 300 mM NaCl, 0.2% Triton X-100, 10 mM βME). Sample was loaded at a flow rate of 1 mL/min. […]

Row | Structure (SMILES) | pEC50 ([1]; activity range) | pIC50 ([2]; activity range) | pEC50 ([1]; numeric values) | pIC50 ([2]; numeric values)
1 | C=C[C@@H]1C[C@]1(NC(=O)[C@@H]1C[C@@](SC(C)C)(c2ccc(-c3ccccc3)cc2)CN1C(=O)[C@@H](NC(=O)OC(C)(C)C(F)(F)F)C(C)(C)C)C(=O)NS(=O)(=O)C1CC1 [Example 10, 1,1,1-trifluoro-2-methylpropan-2-yl (S)-1-((2S,4R)-4-(biphenyl-4-yl)-2-((1R,2S)-1-(cyclopropylsulfonylcarbamoyl)-2-vinylcyclopropylcarbamoyl)-4-(isopropylthio)pyrrolidin-1-yl)-3,3-dimethyl-1-oxobutan-2-ylcarbamate] | 7.00 to 8.22 | 7.70 to 9.00 |  | 
2 | C=C[C@@H]1C[C@]1(NC(=O)[C@@H]1C[C@](c2ccc(-c3ccccc3)cc2)([S+]([O-])CCCC)CN1C(=O)[C@@H](NC(=O)OC(C)(C)C)C(C)(C)C)C(=O)NS(=O)(=O)C1CC1 (single isomer, unassigned) [Example 2] | 7.00 to 8.22 | 7.70 to 9.00 |  | 
3 | C=CCS[C@@]1(c2ccc(-c3ccccc3)cc2)C[C@@H](C(=O)N[C@]2(C(=O)NS(=O)(=O)C3CC3)C[C@H]2C=C)N(C(=O)[C@@H](NC(=O)OC(C)(C)C)C(C)(C)C)C1 [Example 12, tert-butyl (S)-1-((2S,4R)-4-(allylthio)-4-(biphenyl-4-yl)-2-((1R,2S)-1-(cyclopropylsulfonylcarbamoyl)-2-vinylcyclopropylcarbamoyl)pyrrolidin-1-yl)-3,3-dimethyl-1-oxobutan-2-ylcarbamate] | 7.00 to 8.22 | 7.70 to 9.00 |  | 
4 | C=C[C@@H]1C[C@]1(NC(=O)[C@@H]1C[C@@](SC(C)C)(c2ccc(-c3ccccc3)cc2)CN1C(=O)[C@@H](NC(=O)OC1(C)CCCC1)C(C)(C)C)C(=O)NS(=O)(=O)C1CC1 [Example 11, 1-methylcyclopentyl (S)-1-((2S,4R)-4-(biphenyl-4-yl)-2-((1R,2S)-1-(cyclopropylsulfonylcarbamoyl)-2-vinylcyclopropylcarbamoyl)-4-(isopropylthio)pyrrolidin-1-yl)-3,3-dimethyl-1-oxobutan-2-ylcarbamate] | 7.00 to 8.22 | 7.70 to 9.00 |  | 
5 | C=C[C@@H]1C[C@]1(NC(=O)[C@@H]1C[C@@](SC(C)C)(c2ccc(-c3ccccc3)cc2)CN1C(=O)[C@@H](NC(=O)OC(C)(C)C)C(C)(C)C)C(=O)NS(=O)(=O)C1CC1 [Example 9, tert-butyl (S)-1-((2S,4R)-4-(biphenyl-4-yl)-2-((1R,2S)-1-(cyclopropylsulfonylcarbamoyl)-2-vinylcyclopropylcarbamoyl)-4-(isopropylthio)pyrrolidin-1-yl)-3,3-dimethyl-1-oxobutan-2-ylcarbamate] | 7.00 to 8.22 | 7.70 to 9.00 |  | 
6 | C=C[C@@H]1C[C@]1(NC(=O)[C@@H]1C[C@@](SC)(c2ccc(-c3ccccc3)cc2)CN1C(=O)[C@@H](NC(=O)OC(C)(C)C)C(C)(C)C)C(=O)NS(=O)(=O)C1CC1 [Example 8, tert-butyl (S)-1-((2S,4R)-4-(biphenyl-4-yl)-2-((1R,2S)-1-(cyclopropylsulfonylcarbamoyl)-2-vinylcyclopropylcarbamoyl)-4-(methylthio)pyrrolidin-1-yl)-3,3-dimethyl-1-oxobutan-2-ylcarbamate] | 7.00 to 8.22 | 7.70 to 9.00 |  | 
7 | CCCCS[C@@]1(c2ccc(-c3ccccc3)cc2)C[C@@H](C(=O)N[C@]2(C(=O)NS(=O)(=O)C3CC3)C[C@H]2C(F)F)N(C(=O)[C@@H](NC(=O)OC(C)(C)C)C(C)(C)C)C1 [Example 6, tert-butyl (S)-1-((2S,4R)-4-(biphenyl-4-yl)-4-(butylthio)-2-((1R,2R)-1-(cyclopropylsulfonylcarbamoyl)-2-(difluoromethyl)cyclopropylcarbamoyl)pyrrolidin-1-yl)-3,3-dimethyl-1-oxobutan-2-ylcarbamate] |  |  | 7.44 to 7.74 | 8.70
8 | CCCCS[C@@]1(c2ccc(-c3ccccc3)cc2)C[C@@H](C(=O)N[C@]2(C(=O)NS(=O)(=O)C3CC3)C[C@H]2C=C(F)F)N(C(=O)[C@@H](NC(=O)OC(C)(C)C)C(C)(C)C)C1 [Example 7, tert-butyl (S)-1-((2S,4R)-4-(biphenyl-4-yl)-4-(butylthio)-2-((1R,2S)-1-(cyclopropylsulfonylcarbamoyl)-2-(2,2-difluorovinyl)cyclopropylcarbamoyl)pyrrolidin-1-yl)-3,3-dimethyl-1-oxobutan-2-ylcarbamate] | 7.00 to 8.22 | 7.70 to 9.00 |  | 
9 | CCCCS[C@@]1(c2ccc(-c3ccccc3)cc2)C[C@@H](C(=O)N[C@]2(C(=O)NS(=O)(=O)C3CC3)C[C@H]2C2CC2)N(C(=O)[C@@H](NC(=O)OC(C)(C)C)C(C)(C)C)C1 [Example 5, tert-butyl (S)-1-((2S,4R)-4-(biphenyl-4-yl)-4-(butylthio)-2-((1S,2R)-2-(cyclopropylsulfonylcarbamoyl)bi(cyclopropan)-2-ylcarbamoyl)pyrrolidin-1-yl)-3,3-dimethyl-1-oxobutan-2-ylcarbamate] | 7.00 to 8.22 | 7.70 to 9.00 |  | 
